Publication PMC12115217, “3,3′-((3-Hydroxyphenyl)azanediyl)dipropionic Acid Derivatives as a Promising Scaffold Against Drug-Resistant Pathogens and Chemotherapy-Resistant Cancer” (Pathogens, 2025)
In brackets after ≈: the same amount, converted by molar mass. Read-outs that look alike come from different tables or passages of the source.

How the values were obtained:
[1] = system: P. aeruginosa AR-1114; assay: Broth microdilution MIC, P. aeruginosa AR-1114; format: cell-based, Pseudomonas aeruginosa; conditions: for minimal inhibitory concentration (MIC) P. aeruginosa AR-1114: IMP-15, CAMHB; for MIC: Pseudomonas aeruginosa, AR1114, read-out: minimal inhibitory concentration (MIC) P. aeruginosa AR-1114
Text: (§1) The multidrug-resistant S. aureus strain TCH 1516 [USA 300-HOU-MR] was obtained from the American Type Culture Collection (ATCC, Manassas, VA, USA) (Table 1). E. faecalis AR-0671, multidrug-resistant E. coli AR-0001, K. pneumoniae AR-0003, P. aeruginosa AR-1114, and A. baumannii AR-0273 strains were acquired from the Centers for Disease Control and Prevention (CDC) AR isolate bank (Table 1). Prior to the initiation of this study, all microbial strains were stored in commercial cryopreservation systems at a temperature of −80 °C. The strains were cultivated on Columbia sheep blood agar (Becton Dickinson, Franklin Lakes, NJ, USA) or potato dextrose agar (PDA) for Candida (Becton Dickinson, Franklin Lakes, NJ, USA).
(§2) The antimicrobial activity of 3-((3-hydroxyphenyl)amino)propanoic acid derivatives was assessed by using the broth microdilution method, following the guidelines outlined by the Clinical Laboratory Standards Institute (CLSI), with modifications. In brief, the compounds were dissolved in dimethyl sulfoxide (DMSO) to attain a final concentration of 25–30 mg/mL. Vancomycin hydrochloride (MedChem express, Cat. No. HY-17362), cefazolin (MedChem express, Cat. No. HY-B1892), and meropenem (MedChem express, Cat. No. HY-13678) were used as control antimicrobial drugs and were dissolved in DMSO as described before. Dilution series were prepared in deep 96-well microplates to achieve a two-fold concentration range of 0.25, 0.5, 1, 2, 4, 8, 16, 32, and 64 µg/mL, utilizing cation-adjusted Mueller–Hinton broth (CAMHB) as the growth medium. The microplates containing the dilution series were then inoculated with fresh cultures of each tested organism to reach a final concentration of 5 × 10^4 CFU (colony-forming units) of the test organism in media containing 1% DMSO and 1× drug concentration, with a volume of 200 µL per well. Wells that were inoculated with medium containing 1% DMSO served as positive controls. Subsequently, the microplates were incubated at 35 ± 1 °C for 18 ± 2 h. Following the incubation period, the plates were examined by using a manual microplate viewer (Sensititre Manual Viewbox, ThermoFisher Scientific, Waltham, MA, USA). […] All experiments were conducted in duplicate with three technical replicates for each condition.

[2] = system: S. aureus TCH 1516; assay: Broth microdilution MIC, S. aureus TCH 1516; format: cell-based, Staphylococcus aureus; conditions: mecA MRSA isolate, USA300 lineage; CAMHB, 18 ± 2 h
Text: as §1, §2

[3] = system: A. baumannii AR-0273; assay: Broth microdilution MIC, A. baumannii AR-0273; format: cell-based, Acinetobacter baumannii; conditions: for MIC: Acinetobacter baumannii
Text: as §1, §2

[4] = system: FaDu cells; assay: MTT cell viability at fixed 100 µM, FaDu cells; format: cell-based; conditions: 24 h, described in words (Figure 2)
Protocol: Test compounds 2–25 were dissolved in hybridoma-grade dimethyl sulfoxide (Millipore, Sigma, Burlington, MA, USA) to prepare stock solutions at concentrations of 10–25 mg/mL. […] For in vitro anticancer activity screening, the compounds were thawed at room temperature, protected from light, and the aliquots were diluted in complete cell culture media to achieve a final concentration of 100 µM and used for the in vitro assays. The cytotoxicity assays were performed in triplicate.
FaDu cells were obtained from the American Type Culture Collection (Rockville, MD, USA). HEK293 cells were kindly provided by Dr. Iliev lab at the Jill Roberts Institute for Inflammatory Bowel Disease, Weill Cornel Medicine of Cornel University (New York, NY, USA). All cells were cultivated in Dulbecco’s Modified Eagle Medium/Nutrient Mixture F-12 (DMEM/F-12) (Gibco, Waltham, MA, USA), 10% fetal bovine serum (FBS) (Gibco, Waltham, MA, USA), 100 U/mL penicillin, and 100 μg/mL streptomycin (P/S) (Gibco, Waltham, MA, USA). Culturing conditions were maintained at 37 °C in a humidified atmosphere containing 5% CO2. The culture medium was refreshed every 2–3 days, and cells were passaged upon reaching 70–80% confluence.
The in vitro inhibitory effects of the compounds were assessed by using the MTT assay. Briefly, cells were plated in 96-well plates at a density of 1 × 10⁴ cells per well. After the cells were allowed to adhere overnight at 37 °C in 5% CO₂, they were treated with compounds at a concentration of 100 µM in triplicate. Following a 20 h incubation, the MTT reagent was added, and the cells were further incubated for 4 h. The resulting formazan was solubilized in anhydrous DMSO, and absorbance was measured at 570 nm by using a microplate reader. Cell viability was calculated by using the following formula: ([AE − AB]/[AC − AB]) × 100%, where AE, AC, and AB represent the absorbance values of experimental samples, untreated controls, and blank wells, respectively. Data analysis was performed by using GraphPad Prism or QuickCalcs.

[5] = system: K. pneumoniae AR-0003; assay: Broth microdilution MIC, K. pneumoniae AR-0003; format: cell-based, Klebsiella pneumoniae; conditions: for minimal inhibitory concentration (MIC) K. pneumoniae AR-0003: KPC-3, CAMHB; for MIC: Klebsiella pneumoniae, AR0003, read-out: minimal inhibitory concentration (MIC) K. pneumoniae AR-0003
Text: as §1, §2

[6] = system: P. aeruginosa AR-1114; assay: Broth microdilution MIC, P. aeruginosa AR-1114; format: cell-based; conditions: Pseudomonas aeruginosa, AR1114; IMP-15; CAMHB, 18 ± 2 h; read-out: minimal inhibitory concentration (MIC) P. aeruginosa AR-1114
[7] = system: E. coli AR-0001; assay: Broth microdilution MIC, E. coli AR-0001; format: cell-based; conditions: Escherichia coli, AR0001; multidrug-resistant, KPC-3; CAMHB, 18 ± 2 h; read-out: minimal inhibitory concentration (MIC) E. coli AR-0001
[8] = system: K. pneumoniae AR-0003; assay: Broth microdilution MIC, K. pneumoniae AR-0003; format: cell-based; conditions: Klebsiella pneumoniae, AR0003; KPC-3; CAMHB, 18 ± 2 h; read-out: minimal inhibitory concentration (MIC) K. pneumoniae AR-0003
[9] = system: S. aureus TCH 1516; assay: Broth microdilution MIC, S. aureus TCH 1516; format: cell-based; conditions: Staphylococcus aureus
[10] = system: E. coli AR-0001; assay: Broth microdilution MIC, E. coli AR-0001; format: cell-based, Escherichia coli; conditions: for minimal inhibitory concentration (MIC) E. coli AR-0001: multidrug-resistant, KPC-3, CAMHB; for MIC: Escherichia coli, AR0001, read-out: minimal inhibitory concentration (MIC) E. coli AR-0001
Text: as §1, §2

[11] = system: E. faecalis AR-0671; assay: Broth microdilution MIC, E. faecalis AR-0671; format: cell-based, Enterococcus faecalis; conditions: for MIC: Enterococcus faecalis
Text: as §1, §2

[12] = AR0273, OXA-23, CAMHB, 18 ± 2 h, read-out: minimal inhibitory concentration (MIC) A. baumannii AR-0273
[13] = MRSA / USA300, mecA MRSA isolate, USA300 lineage, CAMHB, 18 ±, read-out: minimal inhibitory concentration (MIC) S. aureus TCH 1516
[14] = AR0671, CAMHB, 18 ± 2 h, read-out: minimal inhibitory concentration (MIC) E. faecalis AR-0671
[15] = AR0273, read-out: minimal inhibitory concentration (MIC) A. baumannii AR-0273
[16] = MRSA / USA300, read-out: minimal inhibitory concentration (MIC) S. aureus TCH 1516
[17] = AR0671, read-out: minimal inhibitory concentration (MIC) E. faecalis AR-0671

SMILES | minimal inhibitory concentration (MIC) P. aeruginosa AR-1114 [1] [µg/mL] | minimal inhibitory concentration (MIC) S. aureus TCH 1516 [2] [µg/mL] | MIC [3, 12] [µg/mL] | minimal inhibitory concentration (MIC) A. baumannii AR-0273 ([3]; OXA-23, CAMHB) [µg/mL] | minimal inhibitory concentration (MIC) K. pneumoniae AR-0003 [5] [µg/mL] | MIC [6] [µg/mL] | MIC [7] [µg/mL] | MIC [8] [µg/mL] | MIC [9, 13] [µg/mL] | minimal inhibitory concentration (MIC) E. coli AR-0001 [10] [µg/mL] | minimal inhibitory concentration (MIC) E. faecalis AR-0671 ([11]; CAMHB) [µg/mL] | MIC [11, 14] [µg/mL] | post-treatment viability (MTT assay) [4] | MIC [1] [µg/mL] | MIC [3, 15] [µg/mL] | MIC [5] [µg/mL] | MIC [9, 16] [µg/mL] | MIC [10] [µg/mL] | MIC [11, 17] [µg/mL]
O=C(O)CCN(CCC(=O)O)c1cccc(O)c1 [Compound 2, 3,3′-((3-Hydroxyphenyl)azanediyl)dipropionic Acid] | >64 | >64 | > 64 | >64 | >64 | > 64 | > 64 | > 64 | > 64 | >64 | >64 | > 64 | minimal cytotoxicity | – | – | – | – | – | –
NNC(=O)CCN(CCC(=O)NN)c1cccc(O)c1 [Compound 4, 3,3′-((3-Hydroxyphenyl)azanediyl)di(propanehydrazide)] | >64 | – | > 64 | >64 | >64 | > 64 | > 64 | > 64 | 8 (≈ 28.4 µM) | >64 | >64 | > 64 | moderate decrease in viability | – | – | – | – | – | –
O=C(O)CCN1CCC(=O)c2ccc(O)cc21 [Compound 7, 3-(7-Hydroxy-4-oxo-3,4-dihydroquinolin-1(2H)-yl)propanoic Acid] | >64 | >64 | > 64 | >64 | >64 | > 64 | > 64 | > 64 | > 64 | >64 | >64 | > 64 | – | – | – | – | – | – | –
O=C(CCN(CCC(=O)NN=Cc1ccc([N+](=O)[O-])cc1)c1cccc(O)c1)NN=Cc1ccc([N+](=O)[O-])cc1 [Compound 10, 3,3′-((3-Hydroxyphenyl)azanediyl)bis(N′-(4-nitrobenzylidene)propanehydrazide)] | – | – | – | – | – | – | – | – | – | – | – | – | – | > 64 | > 64 | > 64 | 4 (≈ 7.31 µM) | > 64 | 16 (≈ 29.2 µM)
O=C(CCN(CCC(=O)NN=Cc1ccc([N+](=O)[O-])s1)c1cccc(O)c1)NN=Cc1ccc([N+](=O)[O-])s1 [Compound 16, 3,3′-((3-Hydroxyphenyl)azanediyl)bis(N′-((5-nitrothiophen-2-yl)methylene)propanehydrazide)] | – | – | – | – | – | – | – | – | – | – | – | – | – | > 64 | > 64 | > 64 | 1 (≈ 1.79 µM) | 32 (≈ 57.2 µM) | 4 (≈ 7.15 µM)
O=C(CCN(CCC(=O)N/N=C/c1ccc([N+](=O)[O-])o1)c1cccc(O)c1)N/N=C/c1ccc([N+](=O)[O-])o1 [Compound 17] | – | – | – | – | – | – | – | – | – | – | >64 | – | – | > 64 | > 64 | > 64 | 16 (≈ 30.3 µM) | > 64 | > 64

Further lines, with some results ahead:

minimal inhibitory concentration (MIC) P. aeruginosa AR-1114 [1] [µg/mL] | minimal inhibitory concentration (MIC) S. aureus TCH 1516 [2] [µg/mL] | MIC [3, 12] [µg/mL] | minimal inhibitory concentration (MIC) A. baumannii AR-0273 ([3]; OXA-23, CAMHB) [µg/mL] | minimal inhibitory concentration (MIC) K. pneumoniae AR-0003 [5] [µg/mL] | MIC [6] [µg/mL] | MIC [7] [µg/mL] | MIC [8] [µg/mL] | MIC [9, 13] [µg/mL] | minimal inhibitory concentration (MIC) E. coli AR-0001 [10] [µg/mL] | minimal inhibitory concentration (MIC) E. faecalis AR-0671 ([11]; CAMHB) [µg/mL] | MIC [11, 14] [µg/mL] | SMILES | post-treatment viability (MTT assay) [4] | MIC [1] [µg/mL] | MIC [3, 15] [µg/mL] | MIC [5] [µg/mL] | MIC [9, 16] [µg/mL] | MIC [10] [µg/mL] | MIC [11, 17] [µg/mL]
>64 | >64 | > 64 | >64 | >64 | > 64 | > 64 | > 64 | > 64 | >64 | >64 | > 64 | O=C(CCN(CCC(=O)NN=Cc1ccccc1)c1cccc(O)c1)NN=Cc1ccccc1 [Compound 8, 3,3′-((3-Hydroxyphenyl)azanediyl)bis(N′-(benzylidene)propanehydrazide)] | – | – | – | – | – | – | –
>64 | >64 | > 64 | >64 | >64 | > 64 | > 64 | > 64 | > 64 | >64 | >64 | > 64 | COc1cc(C=NNC(=O)CCN(CCC(=O)NN=Cc2cc(OC)c(OC)c(OC)c2)c2cccc(O)c2)cc(OC)c1OC [Compound 13, 3,3′-((3-Hydroxyphenyl)azanediyl)bis(N′-(3,4,5-trimethoxybenzylidene)propanehydrazide)] | – | – | – | – | – | – | –
>64 | >64 | > 64 | >64 | >64 | > 64 | > 64 | > 64 | > 64 | >64 | >64 | > 64 | O=C(CCN(CCC(=O)N/N=C/c1ccsc1)c1cccc(O)c1)N/N=C/c1ccsc1 [Compound 18] | – | – | – | – | – | – | –
